According to US8394954B2, “Benzophenone hybrids as anticancer agents and processes for the preparation thereof” (Council of Scientific & Industrial Research, priority 2007, dated 2013):

Columns and labels:
[1] = system: duplex-form calf thymus DNA (CT-DNA); test: Thermal denaturation studies with CT-DNA; format: binding; conditions: [BPD]:[DNA] molar ratio 1:5, CT-DNA 100 μM, ligand 20 μM, pH 7.00
Method: Compounds were subjected to thermal denaturation studies with duplex-form calf thymus DNA (CT-DNA). Working solutions in aqueous buffer (10 mM NaH2PO4/Na2HPO4, 1 mM Na2EDTA, pH 7.00+0.01) containing CT-DNA (100 μm in phosphate) and the BPD (20 μm) were prepared by addition of concentrated BPD solutions in DMSO to obtain a fixed [BPD]/[DNA] molar ratio of 1:5. The DNA-BPD solutions were incubated at 37° C. for 0, 18, and 36 h prior to analysis. Samples were monitored at 260 nm using a Beckman DU-7400 spectrophotometer fitted with high performance temperature controller, and heating was applied at 1° C. min-1 in the 40-90° C. range. DNA helix coil transition temperatures (Tm) were obtained from the maxima in the (dA260)/dT derivative plots. Results are given as the mean±standard deviation from three determinations and are corrected for the effects of DMSO co-solvent using a linear correction term. Drug-induced alterations in DNA melting behavior are given by: ΔTm=Tm(DNA+BPD)−Tm(DNA alone), where the Tm value for the BPD-free CT-DNA is 69.0±0.01.

[2] = system: sixty human tumor cells derived from nine cancer types; test: NCI in vitro anticancer screen, 48 h exposure, SRB assay, mean over all lines; format: cell-based
Method: (§1) Compounds described herein were evaluated for in vitro anticancer activity. Particularly the 6a, 6b, 6d, 6h, 8a and 8b compounds were evaluated for in vitro anticancer activity against sixty human tumor cells derived from nine cancer types (leukemia, non-small-cell lung, colon, […], ovarian, prostate, and breast cancer) as shown in (Table 2 and 3). For the compound, dose response curves for each cell line were measured at a minimum of five concentrations at 10 fold dilutions. A protocol of 48 h continuous drug exposure was used and a sulforhodamine B (SRB) protein assay was used to estimate cell viability or growth. The concentration causing 50% cell growth inhibition (GI50), total cell growth inhibition (TGI 0% growth) and 50% cell death (LC50, −50% growth) compared with the control was calculated.

[3] = system: Leukemia cancer cell lines; test: NCI in vitro anticancer screen, leukemia panel; format: cell-based, human; conditions: Homo sapiens, average of six to nine cell lines, read-out: Log GI50 (concentration in mol/L causing 50% growth inhibition) (converted)
Method: as §1

[4] = system: Nonsmall-cell-lung cancer cell lines; test: NCI in vitro anticancer screen, non-small-cell lung panel; format: cell-based, human; conditions: Homo sapiens, average of six to nine cell lines, read-out: Log GI50 (concentration in mol/L causing 50% growth inhibition) (converted)
Method: as §1

Colon cancer cell lines = test: NCI in vitro anticancer screen, colon panel; format: cell-based, human; conditions: Homo sapiens, average of six to nine cell lines, read-out: Log GI50 (concentration in mol/L causing 50% growth inhibition) (converted)
Method: as §1

CNS cancer cell lines = test: NCI in vitro anticancer screen, CNS panel; format: cell-based, human; conditions: Homo sapiens, average of six to nine cell lines, read-out: Log GI50 (concentration in mol/L causing 50% growth inhibition) (converted)
Method: as §1

[5] = system: Melanoma cancer cell lines; test: NCI in vitro anticancer screen, melanoma panel; format: cell-based, human; conditions: Homo sapiens, average of six to nine cell lines, read-out: Log GI50 (concentration in mol/L causing 50% growth inhibition) (converted)
Method: as §1

[6] = system: Ovarian cancer cell lines; test: NCI in vitro anticancer screen, ovarian panel; format: cell-based, human; conditions: Homo sapiens, average of six to nine cell lines, read-out: Log GI50 (concentration in mol/L causing 50% growth inhibition) (converted)
Method: as §1

Renal cancer cell lines = test: NCI in vitro anticancer screen, renal panel; format: cell-based, human; conditions: Homo sapiens, average of six to nine cell lines, read-out: Log GI50 (concentration in mol/L causing 50% growth inhibition) (converted)
Method: as §1

[7] = system: Prostate cancer cell lines; test: NCI in vitro anticancer screen, prostate panel; format: cell-based, human; conditions: Homo sapiens, average of six to nine cell lines, read-out: Log GI50 (concentration in mol/L causing 50% growth inhibition) (converted)
Method: as §1

Breast cancer cell lines = test: NCI in vitro anticancer screen, breast panel; format: cell-based, human; conditions: Homo sapiens, average of six to nine cell lines, read-out: Log GI50 (concentration in mol/L causing 50% growth inhibition) (converted)
Method: as §1

[8] = system: HOP-62, NCI-H23 cell lines; test: NCI in vitro anticancer screen, non-small cell lung lines; format: cell-based; conditions: Homo sapiens, non-small cell lung cancer panel
Method: as §1
(§2) In the non-small cell lung cancer panel, the growth of HOP-62, […] were affected by compound 6d with G150 values as 11.7, 13.9 and 17.2 nM respectively. […] In vitro cytotoxicity of compounds 6d, 8a, and 8b in selected cancer cell lines has been illustrated in Table 3. The average G150 values for each cancer panel of compounds 6a, 6b, 6d, 6e, 8a and 8b have been illustrated in Table 2.

[9] = system: colon cancer HCC-2988 cell line; test: NCI in vitro anticancer screen, HCC-2988; format: cell-based; conditions: Homo sapiens
Method: as §1, §2

[10] = system: colon cancer HCT-116 cell line; test: NCI in vitro anticancer screen, HCT-116; format: cell-based; conditions: Homo sapiens
Method: as §1, §2

[11] = system: colon cancer KM12 cell line; test: NCI in vitro anticancer screen, KM12; format: cell-based; conditions: Homo sapiens
Method: as §1, §2

[12] = system: CNS SF-295, SF-539, SNB-19 and SNB-75 cell lines; test: NCI in vitro anticancer screen, CNS lines; format: cell-based; conditions: Homo sapiens; range over SF-295, SF-539, SNB-19 and SNB-75
Method: as §1, §2

[13] = system: ovarian cancer OVCAR-4 cell line; test: NCI in vitro anticancer screen, OVCAR-4; format: cell-based; conditions: Homo sapiens
Method: as §1, §2

[14] = system: ovarian cancer OVCAR-5 cell line; test: NCI in vitro anticancer screen, OVCAR-5; format: cell-based; conditions: Homo sapiens
Method: as §1, §2

[15] = system: ovarian cancer OVCAR-8 cell line; test: NCI in vitro anticancer screen, OVCAR-8; format: cell-based; conditions: Homo sapiens
Method: as §1, §2

[16] = system: ovarian cancer SK-OV-3 cell line; test: NCI in vitro anticancer screen, SK-OV-3; format: cell-based; conditions: Homo sapiens
Method: as §1, §2

[17] = system: renal and breast cancer panels; test: NCI in vitro anticancer screen, renal and breast panels; format: cell-based; conditions: Homo sapiens; range over renal and breast cancer panels
Method: as §1, §2

[18] = system: human cancer cell lines of colon (Colo205), lung (Hop-62), cervix (SiHa), prostate (DU145, PC3), oral (DWD, HT1080), and breast (MCF7, Zr-75-1) origin; test: In vitro evaluation of cytotoxic activity in selected human cancer cell lines, 48 h exposure; format: cell-based; conditions: 48 h continuous drug exposure
Method: In vitro evaluation of cytotoxic activity. Compounds 6a, 6b, 6d, 6e, 8a and 8b were evaluated for in vitro anticancer activity against nine human tumor cells derived from six cancer types (colon, prostate, oral, lung, cervix and breast cancer) as shown in Table 2. […] Compounds 6a, 6b, 6d, 6e, 8a and 8b have been evaluated for their in vitro cytotoxicity in selected human cancer cell lines of colon (Colo205), lung (Hop-62), cervix (SiHa), prostate (DU145, PC3), oral (DWD, HT1080), and breast (MCF7, Zr-75-1) origin. A protocol of 48 h continuous drug exposure has been used and an […] has been used to estimate cell viability or growth. The results are expressed as percent of cell growth determined relative to that of untreated control cells

For O=C(CN1CCN(c2ncnc3ccccc23)CC1)Nc1ccc(Cl)cc1C(=O)c1ccccc1Cl [Compound 6d, N1-4-chloro-2-(2-chlorobenzoyl)phenylJ-2-[4-(4-quinazolinyl)piperazino]acetamide], the “ΔTm after incubation at 37° C. for 0 h” value ([1]; 0 h) was 1.5 °C, the “ΔTm after incubation at 37° C. for 18 h” value ([1]; 18 h) was 1.9 °C and the “ΔTm after incubation at 37° C. for 36 h” value ([1]; 36 h) was 2.7 °C. The GI50 ([2]; Homo sapiens, wide spectrum of activity against sixty cell lines in nine cell panels) was under 20000 nM, the “Log10LC50 mean graph midpoint (MG_MID)” value ([2]; human tumor cell lines, 48 h exposure, 50% cell death) was −4.62 and the “Log10GI50 mean graph midpoint (MG_MID)” value ([2]; human tumor cell lines, 48 h exposure, 50% cell growth inhibition) was −6.82. For the same compound, the “Log10TGI mean graph midpoint (MG_MID)” value ([2]; human tumor cell lines, 48 h exposure, total cell growth inhibition) was −6.56, the GI50 [3] was 151 nM and the GI50 [4] was 389 nM. The GI50 (Colon cancer cell lines) was 229 nM, the GI50 (CNS cancer cell lines) was 224 nM and the GI50 [5] was 204 nM. The GI50 [6] was 219 nM, the GI50 (Renal cancer cell lines) was 214 nM and the GI50 [7] was 398 nM. For the same compound, the GI50 (Breast cancer cell lines) was 178 nM, the GI50 [8] was 11.7 nM and the GI50 [9] was 11.6 nM. It also gave a GI50 [10] of 11.2 nM, a GI50 [11] of 11.4 nM and a GI50 [12] of 11.6 to 24.2 nM. The GI50 [13] was 30.6 nM, the GI50 [14] was 14.9 nM and the GI50 [15] was 30.5 nM. For the same compound, the GI50 [16] was 78.6 nM, the GI50 [17] was 11.6 to 43.4 nM and the “cytotoxicity against some cancer cell lines” value [18] was “promising cytotoxicity”.
